From US20210269434A1, “TRICYCLIC COMPOUNDS AS INHIBITORS OF KRAS” (Incyte Corporation, priority 2020, published 2021)

Target: KRAS G12D (Homo sapiens, UniProt P01116, G12D)
Experiment: GDP-GTP exchange assay (KRAS_G12D exchange)
Assay type: biochemical
Conditions: bodipy loaded KRAS G12D 2.5 nM; 4 hours incubation after GppNHp-SOS1; read-out: G12D_exchange
Description: Example A. GDP-GTP Exchange Assay
The inhibitor potency of the exemplified compounds was determined in a fluorescence based guanine nucleotide exchange assay, which measures the exchange of bodipy-GDP (fluorescently labeled GDP) for GppNHp (Non-hydrolyzable GTP analog) to generate the active state of KRAS in the presence of SOS1 (guanine nucleotide exchange factor). Inhibitors were serially diluted in DMSO and a volume of 0.1 μL was transferred to the wells of a black low volume 384-well plate. 5 μL/well volume of bodipy-loaded KRAS G12C diluted to 5 nM in assay buffer (25 mM Hepes pH 7.5, 50 mM NaCl, 10 mM MgCl2 and 0.01% Brij-35) was added to the plate and pre-incubated with inhibitor for 2 hours at ambient temperature. Appropriate controls (enzyme with no inhibitor or with a G12C inhibitor (AMG-510)) were included on the plate. The exchange was initiated by the addition of a 5 μL/well volume containing 1 mM GppNHp and 300 nM SOS1 in assay buffer. The 10 μL/well reaction concentration of the bodipy-loaded KRAS G12C, GppNHp, and SOS1 were 2.5 nM, 500 uM, and 150 nM, respectively. The reaction plates were incubated at ambient temperature for 2 hours, a time estimated for complete GDP-GTP exchange in the absence of inhibitor. For the KRAS G12D and G12V mutants, similar guanine nucleotide exchange assays were used with 2.5 nM as final concentration for the bodipy loaded KRAS proteins and with 4 hours and 3 hours incubation after adding GppNHp-SOS1 mixture for G12D and G12V respectively. A cyclic peptide described to selectively bind G12D mutant (Sakamoto et al., BBRC 484.3 (2017), 605-611) or internal compounds with confirmed binding were used as positive controls in the assay plates. Fluorescence intensities were measured on a PheraStar plate reader instrument (BMG Labtech) with excitation at 485 nm and emission at 520 nm.
Either GraphPad prism or XLfit was used to analyze the data. The IC50 values were derived by fitting the data to a four parameter logistic equation producing a sigmoidal dose-response curve with a variable Hill coefficient. Prism equation: Y=Bottom+(Top−Bottom)/(1+10^((Log lC50−X)*Hill slope)); XLfit equation: Y=(A+((B−A)/(1+((X/C)^D)))) where X is the logarithm of inhibitor concentration and Y is the response.

Chain of KRAS G12D (P01116 1-188 isoform P01116-2 G12D): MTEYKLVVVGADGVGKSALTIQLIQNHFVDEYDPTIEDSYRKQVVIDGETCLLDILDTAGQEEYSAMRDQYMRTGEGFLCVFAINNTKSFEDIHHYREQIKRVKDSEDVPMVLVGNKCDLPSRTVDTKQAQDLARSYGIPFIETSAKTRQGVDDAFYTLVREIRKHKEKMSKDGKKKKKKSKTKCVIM

SMILES | IC50 [nM]
CN(C)Cc1nc2c(N3CC(N(C)C)C3)nc3c(F)c(-c4cc(O)cc5ccccc45)c(Cl)cc3c2n1[C@H]1[C@H]2CN[C@@H]1C2 (racemic) [Example 49, 4-(1-((endo)-2-azabicyclo[2.1.1]hexan-5-yl)-8-chloro-4-(3-(dimethylamino)-azetidin-1-yl)-2-((dimethylamino)methyl)-6-fluoro-1H-imidazo[4,5-c]quinolin-7-yl)naphthalen-2-ol] | 5000 to 10000
CNCCc1nc2c(N3CC(N(C)C)C3)nc3c(F)c(-c4cc(O)cc5ccccc45)c(-c4cn[nH]c4)cc3c2n1C1C2CNC1C2 (single isomer, unassigned) [Example 295b, 4-(1-((endo)-2-azabicyclo[2.1.1]hexan-5-yl)-4-(3-(dimethylamino)azetidin-1-yl)-6-fluoro-2-(2-(methylamino)ethyl)-8-(1H-pyrazol-4-yl)-1H-imidazo[4,5-c]quinolin-7-yl)naphthalen-2-ol] | 100 to 1000
CN(C)C1CN(c2nc3c(F)c(-c4cc(O)cc5ccc(Cl)cc45)c(Cl)cc3c3c2ncn3[C@H]2[C@H]3CN[C@@H]2C3)C1 (single isomer, unassigned) [Example 23a, 4-(1-((endo)-2-azabicyclo[2.1.1]hexan-5-yl)-8-chloro-4-(3-(dimethylamino)azetidin-1-yl)-6-fluoro-1H-imidazo[4,5-c]quinolin-7-yl)-6-chloronaphthalen-2-ol] | 100 to 1000

More lines, now with the values ahead:

IC50 [nM] | SMILES
≤ 100 | CNC(=O)c1cc(-c2nc3c(F)c(-c4cc(O)cc5ccccc45)c(CCC#N)cc3c3c2nc(CCC(=O)N(C)C)n3C2C3CNC2C3)ccc1F (stereo not drawn) [Example 297, 5-(1-((endo)-2-azabicyclo[2.1.1]hexan-5-yl)-8-(2-cyanoethyl)-2-(3-(dimethylamino)-3-oxopropyl)-6-fluoro-7-(3-hydroxynaphthalen-1-yl)-1H-imidazo[4,5-c]quinolin-4-yl)-2-fluoro-N-methylbenzamide]
≤ 100 | CN(C)C(=O)CCc1nc2c(N3CC(N(C)C)C3)nc3c(F)c(-c4cc(O)cc5ccccc45)c(Cc4ccccc4C#N)cc3c2n1C1C2CNC1C2 (stereo not drawn) [Example 299, 3-(1-((endo)-2-azabicyclo[2.1.1]hexan-5-yl)-8-(2-cyanobenzyl)-4-(3-(dimethylamino)azetidin-1-yl)-6-fluoro-7-(3-hydroxynaphthalen-1-yl)-1H-imidazo[4,5-c]quinolin-2-yl)-N,N-dimethylpropanamide]
